Measured values reported in patent publication US20230148605A1, “APPLICATION OF GERANIOL IN PREPARATION OF FORMULATION FOR PROMOTING SYNTHESIS OF PSEUDOMONAS AERUGINOSA 3OC12-HSL SIGNAL MOLECULES” (priority 2021, published 2023).

What was measured:
Assay type in all cases: cell-based
[1] = test system: Pseudomonas aeruginosa PAO1; assay: Influence of geraniol on Pseudomonas aeruginosa PAO1 growth (growth curve, OD600, Bioscreen C)
Experimental: An LB medium and geraniol were respectively added to test tubes, joined with the PAO1 bacterial suspension in the exponential growth phase, to make total volumes all reach 10 mL, so that PAO1 bacterial concentrations were all 10^6 CFU/mL, and concentrations of geraniol were respectively 0 μL/mL (control), 0.313 μL/mL, 0.625 μL/mL, 1.25 μL/mL, and 2.5 μL/mL. Samples from the experimental groups were respectively added to a honeycomb culture plate dedicated to an automatic growth curve analyzer (Bioscreen C), which has each well added with 350 μL culture medium; and each experimental group has three parallel experiments. The honeycomb culture plate was placed in the automatic growth curve analyzer, for shaking culture at 37° C. for 3 days, with OD600 measured every hour. Taking OD600 as an ordinate and culture time as an abscissa, a growth curve of PAO1 under an action of geraniol was drawn to study influence of geraniol on PAO1 growth.

[2] = test system: key genes in the Pseudomonas aeruginosa quorum sensing system and virulent genes regulated thereby; assay: Influence of geraniol on expression of key quorum sensing genes and regulated virulent genes (real-time fluorescent quantitative PCR); conditions: 1.25 μL/mL geraniol, 5 h, PAO1
Experimental: The PAO1 bacterial suspension in a logarithmic growth phase was added to 50 mL sterile LB liquid medium to make a final concentration of the bacterial solution reach 10^6 CFU/mL. Geraniol was added to make a final concentration become 0 μL/mL (three biological replicates in a control group were respectively named A1, A2 and A3) and 1.25 μL/mL (three biological replicates in an experimental group were respectively named B1, B2 and B3); the respective groups were cultured at 37° C. and 180 rpm for 5 h, centrifuged to collect Bacteria, and then snap-frozen at −80° C. for later use.
Total bacterial RNA was extracted with a kit of Trizol (Thermo Company). After extraction, purity of RNA was detected with an ultra-micro spectrophotometer (Implen, Munich, Germany). An A260/A280 value of each RNA sample should be between 1.8 and 2.0. Reverse transcription and real-time fluorescent quantitative PCR amplification were performed with the PrimeScript RT Master Mix kit (Takara, Dalian, China) and the ETC 811 PCR instrument (Beijing Eastwin Life Sciences, Inc.). A q-PCR reaction system adopted Takara's SYBR Premix Ex TaqII (Tli RNaseH Plus) (Code No. RR820A); the PCR program was pre-denaturation at 95° C. for 30 s; denaturation at 95° C. for 5 s, annealing at 60° C. for 34 s, 40 loops; according to the 10 gene sequences already published on the GenBank website, primers for q-PCR were designed with Primer Premier 5.0 software, and meanwhile, the 16SrRNA gene was used as an internal reference gene.
Table 1 Genes and primer sequences thereof used in real-time fluorescent quantitative PCR

[3] = test system: key genes in the Pseudomonas aeruginosa quorum sensing system and virulent genes regulated thereby; assay: as above; conditions: low concentration of geraniol (0.313 to 2.5 μL/mL), PAO1; concluded from the experiments

CC(C)=CCC/C(C)=C/CO [geraniol, Geraniol]
growth of PAO1 cells (OD600 growth curve) ([1]; geraniol 0.313, 0.625, 1.25 and 2.5 μL/mL, LB, 37° C., 3 days): slightly inhibit growth | concentration dependence of effect on growth of PAO1 cells ([1]; geraniol 0.313 to 2.5 μL/mL): concentration-dependent inhibitory effect | antibacterial activity compared with other geraniol groups ([1]; geraniol 2.5 μL/mL): highest antibacterial activity | bacterial proliferation rate in the logarithmic growth phase ([1]; geraniol 2.5 μL/mL, versus other groups): significantly lower than other groups | expression level of pelF [2]: not significantly down-regulated | expression level of pslB [2]: not significantly down-regulated | expression level of the signal molecule synthase encoding gene rhl (rhl system) [2]: does not change significantly | expression level of toxA [2]: not significantly down-regulated | expression level of virulent gene chiC [2]: significantly down-regulated | expression level of virulent gene lasA [2]: significantly down-regulated | expression level of virulent gene lasB [2]: significantly down-regulated | expression level of virulent gene phzM [2]: significantly down-regulated | expression of lasI (signal molecule synthase gene, las system) [2]: up-regulated | expression of lasR (signal molecule receptor protein gene, las system) [2]: down-regulated | expression of pqsA (signal molecule synthase gene, pqs system) [2]: down-regulated | expression of pqsR (signal molecule receptor protein gene, pqs system) [2]: up-regulated | expression of rhlR (signal molecule receptor protein gene, rhl system) [2]: down-regulated | synthesis of 3OC12-HSL signal molecules [3]: significantly promote synthesis
